Data as given in ChEMBL document CHEMBL4813957, “Antitubercular properties of thiazolidin-4-ones - A review” (Eur J Med Chem, 2021).
Converted amounts (≈) assume the structure as drawn.

Experiments:
[1] = test system: Mycobacterium tuberculosis; experiment: Antimycobacterial activity against Mycobacterium tuberculosis H37Rv assessed as bacterial inhibition at 25 ug/ml by microplate alamar blue assay relative to control; type: functional
[2] = test system: Mycobacterium tuberculosis; experiment: Antimycobacterial activity against Mycobacterium tuberculosis H37Rv measured after 14 days by test tube dilution technique; type: functional; details: 336 h, time 14 day
[3] = test system: Mycobacterium tuberculosis; experiment: Antimycobacterial activity against Mycobacterium tuberculosis H37Rv measured after 21 days by test tube dilution technique; type: functional; details: 504 h, time 21 day
[4] = test system: Mycobacterium tuberculosis; experiment: Antimycobacterial activity against Mycobacterium tuberculosis H37Ra 7131 incubated for 21 days by broth dilution method; type: functional; details: H37Ra 7131, 504 h, time 21 day
[5] = test system: Mycobacterium tuberculosis; experiment: Antimycobacterial activity against Mycobacterium tuberculosis H37Rv ATCC27294 incubated for 7 days by microplate alamar blue assay; type: functional; details: H37Rv ATCC 27294, 168 h, time 7 day
[6] = Selectivity index, ratio of IC50 for African green monkey Vero cells to MIC for antitubercular activity against Mycobacterium tuberculosis H37Ra ATCC 25177; type: toxicity
[7] = test system: Mycobacterium tuberculosis; experiment: Bactericidal activity against Mycobacterium tuberculosis H37Ra ATCC 25177 assessed as ratio of MBC to MIC; type: functional
[8] = test system: Mycobacterium tuberculosis; experiment: Antimycobacterial activity against Mycobacterium tuberculosis H37Ra ATCC 25177 incubated for 7 days by microplate alamar blue assay; type: functional; details: H37Ra ATCC 25177, 168 h, time 7 day
[9] = test system: Mycobacterium tuberculosis; experiment: Antimycobacterial activity against Mycobacterium tuberculosis H37Rv; type: functional
[10] = test system: Mycolicibacterium smegmatis; experiment: Antimycobacterial activity against Mycobacterium smegmatis ATCC 35797 incubated for 48 hrs by agar dilution method; type: functional
[11] = test system: Mycobacterium tuberculosis; experiment: Antimycobacterial activity against Mycobacterium tuberculosis H37Rv by Lowenstein-Jensen method relative to control; type: functional
[12] = test system: Mycobacterium tuberculosis; experiment: Antimycobacterial activity against Mycobacterium tuberculosis H37Rv incubated for 7 days by microplate alamar blue assay; type: functional; details: 168 h, time 7 day
[13] = test system: Mycobacterium tuberculosis; experiment: Antimycobacterial activity against Mycobacterium tuberculosis H37Rv ATCC 27294 incubated for 5 days by microplate alamar blue assay; type: functional; details: H37Rv ATCC 27294, 120 h, time 5 day
[14] = test system: Mycobacterium tuberculosis; experiment: Antimycobacterial activity against Mycobacterium tuberculosis H37Ra ATCC 25177 measured on 8th to 12th day by XTT reduction menadione assay; type: functional; details: time 8-12 day
[15] = test system: Mycobacterium tuberculosis; experiment: Antimycobacterial activity against Mycobacterium tuberculosis H37Ra; type: functional

SMILES: CCCCCCCCCCCCN1C(=O)C(CC(=O)O)SC12CCCC2 (stereo unspecified)
- inhibition at 25 µg/mL [1]: 97%

SMILES: CCCCCCCCCCCCN1C(=O)C(CC(=O)O)SC12CCCCCC2 (stereo unspecified)
- inhibition at 25 µg/mL [1]: 96%

SMILES: O=C(COc1cnccn1)N/N=C1/SCC(=O)N1c1ccc(Cl)cc1[N+](=O)[O-]
- MIC [2]: 85 µg/mL (≈ 201 µM)
- MIC [3]: 89 µg/mL (≈ 210 µM)

SMILES: CCCCCCCCCCCCN1C(=O)C(CC(=O)O)SC12CCN(C(=O)C(N)CCCCN)CC2 (stereo unspecified)
- inhibition at 25 µg/mL [1]: 96%

SMILES: N=C1SC(Br)(C(Br)c2ccccc2)C(=O)N1NC(=O)c1ccncc1 (stereo unspecified)
- MIC [4]: 13 µg/mL (≈ 26.8 µM)

SMILES: COc1cccc(C2SCC(=O)N2NC(=O)c2cc(O)c(O)c(O)c2)c1O (stereo unspecified)
- MIC [5]: 0.79 µg/mL (≈ 2.01 µM)

SMILES: Cc1ccc(/N=C2\SC(=O)C(=O)N2NC(=O)c2ccncc2)cc1
- MIC [4]: 78 µg/mL (≈ 229 µM)

SMILES: NC(=S)N/N=C/c1ccc(OC(=O)/C=C2\SC(=O)NC2=O)cc1
- selectivity ratio [6]: > 10
- Ratio [7]: 2
- MIC [8]: 0.031 µg/mL (≈ 0.0885 µM)

SMILES: NC(=S)N/N=C/c1ccc(OC(=O)CC2SC(=O)NC2=O)c(Cl)c1 (stereo unspecified)
- selectivity ratio [6]: > 10
- Ratio [7]: 2
- MIC [8]: 0.031 µg/mL (≈ 0.0801 µM)

SMILES: O=C1/C(=C/c2ccc([N+](=O)[O-])cc2)SC(c2ccc([N+](=O)[O-])cc2)N1NCCNc1ncc([N+](=O)[O-])s1 (stereo unspecified)
- MIC [9]: 25 µg/mL (≈ 46 µM)

SMILES: CCC1SCC(=O)N1NC(=O)c1ccncc1 (stereo unspecified)
- MIC [10]: > 100 µg/mL

SMILES: C=CC/N=C1\SC(=O)C(=O)N1NC(=O)c1ccncc1
- MIC [4]: 19.5 µg/mL (≈ 67.2 µM)

SMILES: N=C1S/C(=C\c2ccccc2)C(=O)N1NC(=O)c1ccncc1
- MIC [4]: 12 µg/mL (≈ 37 µM)

SMILES: O=C(NCCCNc1ncc([N+](=O)[O-])s1)N1C(=O)/C(=C/c2ccccc2[N+](=O)[O-])SC1c1ccccc1[N+](=O)[O-] (stereo unspecified)
- MIC [11]: 2.75 µg/mL (≈ 4.7 µM)

SMILES: C/C(=N\N1C(=O)CSC1c1ccc(O)cc1)c1oc2ccc(Cl)cc2c1C (stereo unspecified)
- MIC [9]: 25 µg/mL (≈ 62.4 µM)

SMILES: CC(C)(C)N1C(=O)CS/C1=N/NC(=O)COc1cnccn1
- MIC [2]: > 100 µg/mL
- MIC [3]: > 100 µg/mL

SMILES: O=C(NN1C(=O)CSC1c1ccccc1)c1cc(O)c(O)c(O)c1 (stereo unspecified)
- MIC [5]: 0.79 µg/mL (≈ 2.28 µM)

SMILES: Cc1ccc(C2SCC(=O)N2c2n[nH]c(=S)s2)cc1 (stereo unspecified)
- MIC [12]: 12.5 µg/mL (≈ 40.4 µM)

SMILES: CCCCCCCCCC1SCC(=O)N1NC(=O)c1ccncc1 (stereo unspecified)
- MIC [10]: 25 µg/mL (≈ 71.5 µM)

SMILES: O=C(NN1C(=O)CSC1c1ccc(O)cc1)c1cc(O)c(O)c(O)c1 (stereo unspecified)
- MIC [5]: 0.79 µg/mL (≈ 2.18 µM)

SMILES: O=C(NN1C(=O)CSC1c1ccccc1O)c1ccncc1 (stereo unspecified)
- MIC [13]: 0.62 µg/mL (≈ 1.97 µM)

SMILES: O=C(NN1C(=O)CSC1c1ccco1)c1ccncc1 (stereo unspecified)
- MIC [13]: 1.25 µg/mL (≈ 4.32 µM)

SMILES: Cc1ccc(/C=C2\SC(=N)N(NC(=O)c3ccncc3)C2=O)cc1
- MIC [4]: 13 µg/mL (≈ 38.4 µM)

SMILES: CCCCCCCCCCCCN1C(=O)C(CC(=O)O)SC12CCCCC2 (stereo unspecified)
- inhibition at 25 µg/mL [1]: 97%

SMILES: Cc1cc(NS(=O)(=O)c2ccc(N3C(=O)CSC3c3c(F)cccc3F)cc2)no1 (stereo unspecified)
- IC90 [14]: 0.43 µg/mL (≈ 0.952 µM)

SMILES: COc1cc(-c2cc(-c3ccc(Cl)cc3)nc(NC(=O)NN3C(=O)CSC3c3ccccc3[N+](=O)[O-])n2)cc(OC)c1OC (stereo unspecified)
- MIC [9]: 100 µg/mL (≈ 157 µM)

SMILES: Cc1cc(NS(=O)(=O)c2ccc(N3C(=O)CSC3c3ccc(F)cc3)cc2)no1 (stereo unspecified)
- IC90 [14]: 0.43 µg/mL (≈ 0.992 µM)

SMILES: CCCCCCCCCCCCN1C(=O)C(CC(=O)O)SC12CCN(C(=O)OC(C)(C)C)CC2 (stereo unspecified)
- inhibition at 25 µg/mL [1]: 96%

SMILES: CCCCCCCCCCCCN1C(=O)C(CC(=O)O)SC12CCC(C(C)(C)C)CC2 (stereo unspecified)
- inhibition at 25 µg/mL [1]: 96%

SMILES: CCCCCCCC1SCC(=O)N1NC(=O)c1ccncc1 (stereo unspecified)
- MIC [10]: > 25 µg/mL

SMILES: O=C(NCCCNc1ncc([N+](=O)[O-])s1)N1C(=O)/C(=C/c2ccc(Br)cc2)SC1c1ccc(Br)cc1 (stereo unspecified)
- MIC [11]: 2.75 µg/mL (≈ 4.21 µM)

SMILES: O=C(NCCCNc1ncc([N+](=O)[O-])s1)N1C(=O)/C(=C/c2ccc([N+](=O)[O-])cc2)SC1c1ccc([N+](=O)[O-])cc1 (stereo unspecified)
- MIC [11]: 2.5 µg/mL (≈ 4.27 µM)

SMILES: Cc1cccc(/N=C2\SC(=O)C(=O)N2NC(=O)c2ccncc2)c1
- MIC [4]: 19.5 µg/mL (≈ 57.3 µM)

SMILES: COc1cc(/C=N/NC(N)=S)ccc1OC(=O)/C=C1\SC(=O)NC1=O
- selectivity ratio [6]: > 10
- Ratio [7]: 2
- MIC [8]: 0.031 µg/mL (≈ 0.0815 µM)

SMILES: Cc1ccc(/N=N/c2ccc(/C=C3\SC(=S)NC3=O)c(O)c2)cc1
- MIC [15]: 95 µg/mL (≈ 267 µM)

SMILES: CCOc1ccc(N2C(=O)CS/C2=N/NC(=O)COc2cnccn2)cc1
- MIC [2]: > 100 µg/mL
- MIC [3]: > 100 µg/mL

SMILES: CCCCCCCCCCC1SCC(=O)N1NC(=O)c1ccncc1 (stereo unspecified)
- MIC [10]: 25 µg/mL (≈ 68.8 µM)

SMILES: CCCCCCCCCCCC1SCC(=O)N1NC(=O)c1ccncc1 (stereo unspecified)
- MIC [10]: 6 µg/mL (≈ 15.9 µM)

SMILES: O=C(NN1C(=O)CSC1c1ccccc1Cl)c1cc(O)c(O)c(O)c1 (stereo unspecified)
- MIC [5]: 0.79 µg/mL (≈ 2.07 µM)

SMILES: O=C(NCCCNc1ncc([N+](=O)[O-])s1)N1C(=O)/C(=C/c2ccc(Cl)cc2)SC1c1ccc(Cl)cc1 (stereo unspecified)
- MIC [11]: 2.5 µg/mL (≈ 4.43 µM)

SMILES: COc1ccc(C2SCC(=O)N2NC(=O)c2ccncc2)cc1 (stereo unspecified)
- MIC [13]: 1.25 µg/mL (≈ 3.79 µM)

SMILES: O=C1/C(=C/c2ccccc2Cl)SC(c2ccccc2Cl)N1NCCNc1ncc([N+](=O)[O-])s1 (stereo unspecified)
- MIC [9]: 25 µg/mL (≈ 47.9 µM)
